# Data published in PubChem BioAssay AID2060606 (Molecular Pharmacology Branch, DTP, NCI, 2025).
# Test system: 922993-354-T-J3-PDC complex spheroids, viability, % test/control
# Assay: Anticancer human tumor 922993-354-T-J3-PDC patient-derived endometrial carcinoma cell line growth inhibition [CLK]
# Settings: for IC50: curve of first compound; for viability, T/C: stronger effect = lower value
# Outline: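 Multi-cell-type spheroids combined patient-derived tumor cells with HUVEC endothelial cells and human mesenchymal stem cells. Paired agents were dosed in half-log steps down from about clinical Cmax, or from 10 microM where Cmax was unknown.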
# [1] = second compound 0.0316 µM, first compound 0.0316 µM
# [2] = second compound 0.0316 µM, first compound 0.1 µM
# [3] = second compound 0.1 µM, first compound 0.0316 µM
# [4] = second compound 0.1 µM, first compound 0.1 µM
# [5] = second compound 0.316 µM, first compound 0.0316 µM
# [6] = second compound 0.316 µM, first compound 0.1 µM
# [7] = second compound 1 µM, first compound 0.0316 µM
# [8] = second compound 1 µM, first compound 0.1 µM
# [9] = second compound 3.16 µM, first compound 0.0316 µM
# [10] = second compound 3.16 µM, first compound 0.1 µM
# [11] = second compound 10 µM, first compound 0.0316 µM
# [12] = second compound 10 µM, first compound 0.1 µM
# [13] = second compound 0.0316 µM, first compound 0.316 µM
# [14] = second compound 0.0316 µM, first compound 1 µM
# [15] = second compound 0.0316 µM, first compound 3.16 µM
# [16] = second compound 0.0316 µM, first compound 10 µM
# [17] = second compound 0.1 µM, first compound 0.316 µM
# [18] = second compound 0.1 µM, first compound 1 µM
# [19] = second compound 0.1 µM, first compound 3.16 µM
# [20] = second compound 0.1 µM, first compound 10 µM
# [21] = second compound 0.316 µM, first compound 0.316 µM
# [22] = second compound 0.316 µM, first compound 1 µM
# [23] = second compound 0.316 µM, first compound 3.16 µM
# [24] = second compound 0.316 µM, first compound 10 µM
# [25] = second compound 1 µM, first compound 0.316 µM
# [26] = second compound 1 µM, first compound 1 µM
# [27] = second compound 1 µM, first compound 3.16 µM
# [28] = second compound 1 µM, first compound 10 µM
# [29] = second compound 3.16 µM, first compound 0.316 µM
# [30] = second compound 3.16 µM, first compound 1 µM
# [31] = second compound 3.16 µM, first compound 3.16 µM
# [32] = second compound 3.16 µM, first compound 10 µM
# [33] = second compound 10 µM, first compound 0.316 µM
# [34] = second compound 10 µM, first compound 1 µM
# [35] = second compound 10 µM, first compound 3.16 µM
# [36] = second compound 10 µM, first compound 10 µM
# 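Note: spheroids exposed to the agents for 7 days before readout.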
smiles,measurement,setting,value
Cn1ncnc1[C@H]1c2n[nH]c(=O)c3cc(F)cc(c23)N[C@@H]1c1ccc(F)cc1 + CNC(=O)c1ccc(Nc2nc(OC3CCCC3)c3c(-c4ccc5nc(C)oc5c4)c[nH]c3n2)c(OC)c1,IC50,second compound 0.0316 µM,> 0.1 µM
same,IC50,second compound 0.1 µM,> 0.1 µM
same,IC50,second compound 0.316 µM,> 0.1 µM
same,IC50,second compound 1 µM,< 0.000316 µM
same,IC50,second compound 3.16 µM,< 0.000316 µM
same,IC50,second compound 10 µM,< 0.000316 µM
same,"viability, T/C","second compound 0.0316 µM, first compound 0.000316 µM",92%
same,"viability, T/C","second compound 0.0316 µM, first compound 0.001 µM",99.2%
same,"viability, T/C","second compound 0.0316 µM, first compound 0.00316 µM",88.9%
same,"viability, T/C","second compound 0.0316 µM, first compound 0.01 µM",104%
same,"viability, T/C",[1],97.6%
same,"viability, T/C",[2],84.6%
same,"viability, T/C","second compound 0.1 µM, first compound 0.000316 µM",109%
same,"viability, T/C","second compound 0.1 µM, first compound 0.001 µM",114%
same,"viability, T/C","second compound 0.1 µM, first compound 0.00316 µM",106%
same,"viability, T/C","second compound 0.1 µM, first compound 0.01 µM",104%
same,"viability, T/C",[3],113%
same,"viability, T/C",[4],94.4%
same,"viability, T/C","second compound 0.316 µM, first compound 0.000316 µM",77.3%
same,"viability, T/C","second compound 0.316 µM, first compound 0.001 µM",64.4%
same,"viability, T/C","second compound 0.316 µM, first compound 0.00316 µM",56.6%
same,"viability, T/C","second compound 0.316 µM, first compound 0.01 µM",73.2%
same,"viability, T/C",[5],76.1%
same,"viability, T/C",[6],57.2%
same,"viability, T/C","second compound 1 µM, first compound 0.000316 µM",36.9%
same,"viability, T/C","second compound 1 µM, first compound 0.001 µM",34%
same,"viability, T/C","second compound 1 µM, first compound 0.00316 µM",32.4%
same,"viability, T/C","second compound 1 µM, first compound 0.01 µM",33.9%
same,"viability, T/C",[7],32.4%
same,"viability, T/C",[8],27.1%
same,"viability, T/C","second compound 3.16 µM, first compound 0.000316 µM",28.9%
same,"viability, T/C","second compound 3.16 µM, first compound 0.001 µM",33.7%
same,"viability, T/C","second compound 3.16 µM, first compound 0.00316 µM",32.1%
same,"viability, T/C","second compound 3.16 µM, first compound 0.01 µM",30.8%
same,"viability, T/C",[9],28%
same,"viability, T/C",[10],21%
same,"viability, T/C","second compound 10 µM, first compound 0.000316 µM",28.8%
same,"viability, T/C","second compound 10 µM, first compound 0.001 µM",34.2%
same,"viability, T/C","second compound 10 µM, first compound 0.00316 µM",31.2%
same,"viability, T/C","second compound 10 µM, first compound 0.01 µM",28.8%
same,"viability, T/C",[11],24.1%
same,"viability, T/C",[12],20.8%
Nc1ccn(C2OC(CO)C(O)C2(F)F)c(=O)n1 (stereo unspecified) + CNC(=O)c1ccc(Nc2nc(OC3CCCC3)c3c(-c4ccc5nc(C)oc5c4)c[nH]c3n2)c(OC)c1,IC50,second compound 0.0316 µM,< 0.0316 µM
same,IC50,second compound 0.1 µM,< 0.0316 µM
same,IC50,second compound 0.316 µM,< 0.0316 µM
same,IC50,second compound 1 µM,< 0.0316 µM
same,IC50,second compound 3.16 µM,< 0.0316 µM
same,IC50,second compound 10 µM,< 0.0316 µM
same,"viability, T/C",[1],15.7%
same,"viability, T/C",[2],17.5%
same,"viability, T/C",[13],18%
same,"viability, T/C",[14],16.6%
same,"viability, T/C",[15],15.5%
same,"viability, T/C",[16],18.3%
same,"viability, T/C",[3],17.9%
same,"viability, T/C",[4],16.2%
same,"viability, T/C",[17],15.7%
same,"viability, T/C",[18],14.9%
same,"viability, T/C",[19],12.5%
same,"viability, T/C",[20],17.3%
same,"viability, T/C",[5],15.7%
same,"viability, T/C",[6],15.5%
same,"viability, T/C",[21],16.5%
same,"viability, T/C",[22],18.1%
same,"viability, T/C",[23],16.9%
same,"viability, T/C",[24],17.2%
same,"viability, T/C",[7],14.7%
same,"viability, T/C",[8],14.6%
same,"viability, T/C",[25],12.9%
same,"viability, T/C",[26],13.3%
same,"viability, T/C",[27],14.8%
same,"viability, T/C",[28],13.2%
same,"viability, T/C",[9],13.6%
same,"viability, T/C",[10],15.8%
same,"viability, T/C",[29],11.8%
same,"viability, T/C",[30],12.4%
same,"viability, T/C",[31],12.9%
same,"viability, T/C",[32],13.1%
same,"viability, T/C",[11],13%
same,"viability, T/C",[12],12.5%
same,"viability, T/C",[33],10.8%
same,"viability, T/C",[34],11.6%
same,"viability, T/C",[35],12.7%
same,"viability, T/C",[36],11.4%
O=C(c1cc(Cc2n[nH]c(=O)c3ccccc23)ccc1F)N1CCN(C(=O)C2CC2)CC1 + CNC(=O)c1ccc(Nc2nc(OC3CCCC3)c3c(-c4ccc5nc(C)oc5c4)c[nH]c3n2)c(OC)c1,IC50,second compound 0.0316 µM,> 10 µM
same,IC50,second compound 0.1 µM,> 10 µM
same,IC50,second compound 0.316 µM,> 10 µM
same,IC50,second compound 1 µM,< 0.0316 µM
same,IC50,second compound 3.16 µM,< 0.0316 µM
same,IC50,second compound 10 µM,< 0.0316 µM
same,"viability, T/C",[1],99.4%
same,"viability, T/C",[2],106%
same,"viability, T/C",[13],101%
same,"viability, T/C",[14],106%
same,"viability, T/C",[15],110%
same,"viability, T/C",[16],101%
same,"viability, T/C",[3],104%
same,"viability, T/C",[4],107%
same,"viability, T/C",[17],98.3%
same,"viability, T/C",[18],105%
same,"viability, T/C",[19],111%
same,"viability, T/C",[20],101%
same,"viability, T/C",[5],73.5%
same,"viability, T/C",[6],72.1%
same,"viability, T/C",[21],67.1%
same,"viability, T/C",[22],66.5%
same,"viability, T/C",[23],66%
same,"viability, T/C",[24],51.8%
same,"viability, T/C",[7],36.1%
same,"viability, T/C",[8],38.5%
same,"viability, T/C",[25],32.3%
same,"viability, T/C",[26],35.6%
same,"viability, T/C",[27],44.1%
same,"viability, T/C",[28],39%
same,"viability, T/C",[9],32.2%
same,"viability, T/C",[10],36.8%
same,"viability, T/C",[29],25.4%
same,"viability, T/C",[30],34%
same,"viability, T/C",[31],28.4%
same,"viability, T/C",[32],33.5%
same,"viability, T/C",[11],34.1%
same,"viability, T/C",[12],24.7%
same,"viability, T/C",[33],31.5%
same,"viability, T/C",[34],34.2%
same,"viability, T/C",[35],34.8%
same,"viability, T/C",[36],33.8%
